Data from the NIST ThermoML archive (doi:10.1021/je060457+).
Numbers after ± are expanded uncertainties.

Assay: refractive index (Na D-line) (dimensionless); xn = mol fraction of the nth substance listed
Conditions: 101 kPa, Liquid, Standard Abbe refractometry

CNCCO [2-(methylamino)ethanol] + O
refractive index
Conditions	293.15 K	298.15 K	303.15 K	308.15 K	313.15 K	318.15 K	323.15 K
x1 = 0.0493	1.3559 ± 0.0004	1.3552 ± 0.0004	1.3544 ± 0.0004	1.3536 ± 0.0005	1.3527 ± 0.0005	1.3517 ± 0.0005	1.3507 ± 0.0005
x1 = 0.0657	1.3625 ± 0.0004	1.3617 ± 0.0004	1.3608 ± 0.0005	1.3599 ± 0.0005	1.3589 ± 0.0005	1.3579 ± 0.0005	1.3568 ± 0.0005
x1 = 0.1054	1.3767 ± 0.0004	1.3754 ± 0.0005	1.3744 ± 0.0005	1.3732 ± 0.0005	1.372 ± 0.0005	1.3708 ± 0.0005	1.3696 ± 0.0007
x1 = 0.1987	1.3997 ± 0.0005	1.3983 ± 0.0005	1.3967 ± 0.0005	1.3956 ± 0.0005	1.394 ± 0.0006	1.3921 ± 0.0005	1.3907 ± 0.0009
x1 = 0.301	1.4151 ± 0.0004	1.4137 ± 0.0005	1.412 ± 0.0005	1.4105 ± 0.0005	1.4091 ± 0.0005	1.4074 ± 0.0006	1.4055 ± 0.0008
x1 = 0.3834	1.4235 ± 0.0004	1.4218 ± 0.0006	1.4201 ± 0.0005	1.4186 ± 0.0005	1.417 ± 0.0006	1.4151 ± 0.0006	1.4134 ± 0.0008
x1 = 0.5041	1.4288 ± 0.0005	1.4272 ± 0.0006	1.4253 ± 0.0006	1.4239 ± 0.0006	1.4221 ± 0.0006	1.4204 ± 0.0006	1.4187 ± 0.0006
x1 = 0.6	1.4324 ± 0.0005	1.4306 ± 0.0006	1.4289 ± 0.0006	1.4272 ± 0.0006	1.4254 ± 0.0006	1.4238 ± 0.0006	1.422 ± 0.0007
x1 = 0.6974	1.4347 ± 0.0006	1.4329 ± 0.0006	1.4311 ± 0.0006	1.4294 ± 0.0006	1.4275 ± 0.0006	1.4257 ± 0.0006	1.4239 ± 0.0006
x1 = 0.8008	1.4366 ± 0.0006	1.4348 ± 0.0006	1.433 ± 0.0006	1.4313 ± 0.0006	1.4293 ± 0.0006	1.4274 ± 0.0006	1.4257 ± 0.0006
x1 = 0.9031	1.4381 ± 0.0006	1.4363 ± 0.0006	1.4344 ± 0.0006	1.4328 ± 0.0006	1.4306 ± 0.0007	1.4288 ± 0.0006	1.4268 ± 0.0007
x1 = 1	1.4393 ± 0.0006	1.4375 ± 0.0006	1.4356 ± 0.0006	1.4339 ± 0.0007	1.4318 ± 0.0007	1.4298 ± 0.0007	1.4278 ± 0.0007
